The results in this text go back to ChEMBL document CHEMBL1201862, “PubChem BioAssay data set” (2004).

Molecules are shown by their SMILES.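 Cultured in 96-well plates, cells were exposed to test compound for 48 hours across five concentrations. GI50 is the concentration that inhibits growth by half.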 The source made the active and inactive calls. Rule as the data show it: active = GI50 up to about 1.1 µM and inactive = higher.

Among the test systems are NCI-H522; HCT-116; MDA-MB-435; MDA-N; SNB-19; EKVX; NCI-H460; OVCAR-4; HOP-92; SK-MEL-5; SR; HCT-15; MOLT-4; SK-MEL-2; A549; MCF7; IGROV-1.
Assay in all cases: inhibition of tumour cell growth, NCI panel, 48 h

For the molecule `CC12CCC3c4ccc(O)cc4CCC3C1C/C(=N\O)C2O` (centres undefined), the GI50 in the assay on NCI-H522 is > 100 µM (inactive); in the assay on HCT-116, > 100 µM (inactive); in the assay with MDA-MB-435, > 100 µM (inactive); in the assay with MDA-N, > 100 µM (inactive); in the assay on SNB-19 it was > 100 µM (inactive); in the assay with EKVX it was 26.8 µM (inactive). Further, the GI50 in the assay with NCI-H460 is > 100 µM (inactive); with OVCAR-4 it was > 100 µM (inactive); with HOP-92, > 100 µM (inactive); in the assay with SK-MEL-5 it was > 100 µM (inactive); in the assay with SR it was > 100 µM (inactive); with HCT-15 it was above 100 µM. The GI50 in the assay with MOLT-4, in the assay on SK-MEL-2, in the assay with A549, with MCF7 and in the assay with IGROV-1 was > 100 µM (inactive) throughout.

Regarding `c1cc2cc3c4c5c(cc6ccc7cc8cc9c%10c8c8c7c6c5c8c5c%10c(c1C9N1CCOCCOCCOCCOCCOCC1)c2c45)C3` (centres undefined), the GI50 with NCI-H522, with HCT-116, with MDA-MB-435, with MDA-N, with SNB-19 and with EKVX was > 100 µM (inactive) throughout. Besides, the GI50 was > 100 µM (inactive) in the assay on NCI-H460; > 100 µM (inactive) in the assay with OVCAR-4; > 100 µM (inactive) in the assay with HOP-92; 78.9 µM (inactive) in the assay on SK-MEL-5; > 100 µM (inactive) in the assay with SR; above 100 µM with HCT-15. Moreover, the GI50 with MOLT-4, with SK-MEL-2, in the assay with A549, in the assay on MCF7 and with IGROV-1 was > 100 µM (inactive) throughout.

For `O=C(O)CCc1nc(-c2ccccc2)c(-c2ccccc2)o1` [OXAPROZIN], the GI50 in the assay with NCI-H522, with HCT-116, in the assay with MDA-MB-435, with MDA-N, with SNB-19 and in the assay with EKVX was > 100 µM (inactive) each time. Further, the GI50 in the assay with NCI-H460 is > 100 µM (inactive); with OVCAR-4 it was > 100 µM (inactive); in the assay with HOP-92 it was > 100 µM (inactive); in the assay on SK-MEL-5, > 100 µM (inactive); in the assay with SR, > 100 µM (inactive); in the assay on HCT-15 it was above 100 µM. Moreover, the GI50 in the assay with MOLT-4 is 84.1 µM (inactive); in the assay with SK-MEL-2 it was > 100 µM (inactive); with A549, > 100 µM (inactive); in the assay with MCF7, > 100 µM (inactive); in the assay with IGROV-1, > 100 µM (inactive).

In the case of `CC[C@H](C)[C@H]1NC(=O)[C@@H](NC(=O)[C@@H](CC(C)C)N(C)C(=O)C2CCCN2C(=O)[C@H](C)O)[C@@H](C)OC(=O)[C@@H]2Cc3ccccc3CN2C(=O)[C@@H]2CCCN2C(=O)[C@H](CC(C)C)NC(=O)[C@@H](C)C(=O)[C@H](C(C)C)OC(=O)C[C@@H]1O` (some centres undefined), the GI50 in the assay on NCI-H522 is 0.443 µM (active); in the assay on HCT-116, 0.144 µM (active); in the assay with MDA-MB-435, 0.374 µM (active); with MDA-N, 0.388 µM (active); with SNB-19 it was 0.207 µM (active); with EKVX it was 2.52 µM (inactive). The GI50 with NCI-H460 was 0.171 µM (active); with OVCAR-4 it was 0.641 µM (active); in the assay with HOP-92, 1.58 µM (inactive); with SK-MEL-5, 0.164 µM (active); in the assay with SR it was 0.0811 µM (active); with HCT-15 it was above 47.2 µM. The GI50 with MOLT-4 was 0.17 µM (active); in the assay on SK-MEL-2, 0.205 µM (active); in the assay with A549, 0.434 µM (active); with MCF7, 0.0596 µM (active); in the assay on IGROV-1, 0.476 µM (active).

Take `CC(C)(CN1CCCCC1)C(=O)CC(SCCS(=O)(=O)O)c1ccc(Cl)c(Cl)c1` (centres undefined): the GI50 is 3.19 µM (inactive) with NCI-H522; 2.59 µM (inactive) with HCT-116; 2.21 µM (inactive) with MDA-MB-435; 3.09 µM (inactive) in the assay on MDA-N; 10.4 µM (inactive) in the assay with SNB-19; 6.59 µM (inactive) with EKVX. In addition, the GI50 with NCI-H460 was 2.22 µM (inactive); in the assay on OVCAR-4 it was 3.52 µM (inactive); with HOP-92, 1.76 µM (inactive); in the assay with SK-MEL-5 it was 8.73 µM (inactive); in the assay with SR, 3.1 µM (inactive); in the assay on HCT-15 it was 2.07 µM. Besides, the GI50 in the assay on MOLT-4 is 3.61 µM (inactive); in the assay on SK-MEL-2, 24 µM (inactive); in the assay with A549, 5.98 µM (inactive); with MCF7 it was 3.46 µM (inactive); in the assay on IGROV-1, 4.4 µM (inactive).

Take `COc1cccc(-c2cc(O)c3cc(N4CCN(C)CC4)ccc3n2)c1`: the GI50 in the assay with NCI-H522 is 1.57 µM (inactive); in the assay on HCT-116 it was 0.543 µM (active); in the assay on MDA-MB-435, 0.225 µM (active); in the assay on MDA-N, 0.265 µM (active); in the assay with SNB-19 it was 2.77 µM (inactive); in the assay on EKVX it was 3.37 µM (inactive). Further, the GI50 was 2.99 µM (inactive) in the assay with NCI-H460; 5.28 µM (inactive) with OVCAR-4; 1.06 µM (active) in the assay on HOP-92; 0.454 µM (active) with SK-MEL-5; 0.42 µM (active) in the assay on SR; 1.75 µM in the assay with HCT-15. The GI50 with MOLT-4 is 2.91 µM (inactive); in the assay on SK-MEL-2, 1.19 µM (inactive); in the assay with A549, 2.39 µM (inactive); with MCF7, 2.67 µM (inactive); with IGROV-1, 3.2 µM (inactive).

Consider `c1ccc2c(c1)CC1c3[nH]c4ccccc4c3CCN21` (centres undefined), for which the GI50 in the assay with NCI-H522, in the assay on HCT-116, in the assay with MDA-MB-435, in the assay with MDA-N, in the assay with SNB-19 and with EKVX was > 10 µM (inactive) each time. For the same molecule, the GI50 with NCI-H460 is > 10 µM (inactive); in the assay with OVCAR-4 it was > 10 µM (inactive); with HOP-92, > 10 µM (inactive); in the assay on SK-MEL-5, > 10 µM (inactive); in the assay on SR, > 10 µM (inactive); in the assay with HCT-15 it was above 10 µM. Moreover, the GI50 in the assay on MOLT-4, in the assay on SK-MEL-2, with A549, with MCF7 and in the assay on IGROV-1 was > 10 µM (inactive) throughout.

Turning to `CC1=NN(C(=O)CSc2nc3ccc(I)cc3c(=O)n2Cc2ccccc2)C(=O)C1`, the GI50 with NCI-H522 is 7.05 µM (inactive); with HCT-116, 29.9 µM (inactive); in the assay on MDA-MB-435 it was 26.4 µM (inactive); in the assay on MDA-N, 31.2 µM (inactive); with SNB-19 it was 33.7 µM (inactive); with EKVX, 23.6 µM (inactive). Besides, the GI50 in the assay on NCI-H460 is 31.8 µM (inactive); with OVCAR-4 it was 24.2 µM (inactive); in the assay on HOP-92, 36.1 µM (inactive); in the assay on SK-MEL-5, 21.7 µM (inactive); in the assay on SR, 16.9 µM (inactive); with HCT-15, 21.5 µM. In addition, the GI50 in the assay on MOLT-4 is 24.4 µM (inactive); in the assay with SK-MEL-2 it was 17.2 µM (inactive); in the assay on A549 it was 34 µM (inactive); with MCF7, 22.8 µM (inactive); in the assay on IGROV-1 it was 28.8 µM (inactive).

Take `CSCCC(NCc1c(O)ccc2ccc(=O)oc12)C(=O)O` (centres undefined): the GI50 is > 100 µM (inactive) in the assay on NCI-H522; > 100 µM (inactive) with HCT-116; 70.8 µM (inactive) in the assay with MDA-MB-435; > 100 µM (inactive) in the assay on MDA-N; > 100 µM (inactive) in the assay on SNB-19; > 100 µM (inactive) with EKVX. Further, the GI50 with NCI-H460 is > 100 µM (inactive); in the assay with OVCAR-4, > 100 µM (inactive); in the assay on HOP-92, > 100 µM (inactive); in the assay with SK-MEL-5, 61.5 µM (inactive); in the assay with SR, > 100 µM (inactive); with HCT-15, above 100 µM. Besides, the GI50 in the assay with MOLT-4, in the assay with SK-MEL-2, in the assay with A549, with MCF7 and with IGROV-1 was > 100 µM (inactive) in each case.

As for `COC(=O)CC1(O)C(C=C(C)C)C(C(=O)OC)C(=O)C(C(=O)OC)C1C(=O)OC` (centres undefined), the GI50 in the assay on NCI-H522, in the assay with HCT-116, with MDA-MB-435, with MDA-N, in the assay with SNB-19 and with EKVX was > 100 µM (inactive) each time. The GI50 was > 100 µM (inactive) in the assay on NCI-H460; > 100 µM (inactive) with OVCAR-4; > 100 µM (inactive) with HOP-92; > 100 µM (inactive) with SK-MEL-5; > 100 µM (inactive) in the assay with SR; above 100 µM with HCT-15. Moreover, the GI50 in the assay on MOLT-4, with SK-MEL-2, in the assay with A549, with MCF7 and in the assay with IGROV-1 was > 100 µM (inactive) each time.

On to `Cc1cc(O)ccc1C1(c2ccc(F)cc2)OC(=O)c2ccccc21` (centres undefined), for which the GI50 in the assay with NCI-H522 was 0.646 µM (active); in the assay on HCT-116 it was 3.21 µM (inactive); in the assay on MDA-MB-435, 13.8 µM (inactive); in the assay with MDA-N, 11.6 µM (inactive); in the assay with SNB-19 it was 4.15 µM (inactive); with EKVX, 3.18 µM (inactive). Further, the GI50 with NCI-H460 is 15.6 µM (inactive); in the assay on OVCAR-4, 0.289 µM (active); in the assay on HOP-92 it was 1.99 µM (inactive); in the assay on SK-MEL-5, 11.3 µM (inactive); in the assay with SR, 13.4 µM (inactive); with HCT-15, 3.18 µM. In addition, the GI50 is 15.5 µM (inactive) in the assay on MOLT-4; 3.93 µM (inactive) in the assay on SK-MEL-2; 5.24 µM (inactive) in the assay on A549; 1.34 µM (inactive) with MCF7; 2.21 µM (inactive) with IGROV-1.

`Cc1n[nH]c(=O)n1/N=C/c1cccnc1`: the GI50 in the assay with NCI-H522, with HCT-116, in the assay on MDA-MB-435, with MDA-N, in the assay on SNB-19 and in the assay with EKVX was > 100 µM (inactive) throughout. Further, the GI50 was > 100 µM (inactive) with NCI-H460; > 100 µM (inactive) in the assay with OVCAR-4; 33.4 µM (inactive) with HOP-92; > 100 µM (inactive) in the assay on SK-MEL-5; > 100 µM (inactive) in the assay on SR; above 100 µM in the assay on HCT-15. The GI50 with MOLT-4, in the assay on SK-MEL-2, in the assay with A549, with MCF7 and in the assay with IGROV-1 was > 100 µM (inactive) in each case.
